Consider 3 molecules from US20240197702A1, “ANTISEPTIC-ANTIBIOTIC GUMBOS EFFECTIVE AGAINST GRAM-NEGATIVE PATHOGENS” (priority 2020, published 2024).

Where a name gives a salt, the structure may show the parent alone.

In series [1] the test system is N. gonorrhoeae ATCC 49226. Description: MIC by micro-broth dilution against N. gonorrhoeae ATCC 49226. In kind it is cell-based, Neisseria gonorrhoeae. The settings on record: Neisseria gonorrhoeae, ATCC49226; ATCC 49226, micro-broth dilution, 20-24 hours. On the procedure: (§1) Minimum Inhibitory Concentrations of GUMBOS against N. gonorrhoeae: Clinical isolates of N. gonorrhoeae and N. gonorrhoeae ATCC 49226 were obtained from Louisiana State University Health Sciences Center New Orleans HIV Outpatient Clinic. Minimum inhibitory concentrations (MICs) of GUMBOS, constituent parent drugs, azithromycin, and unreacted mixtures were determined using micro-broth dilution in 96-well plates. […] Stock solutions were diluted to a known working concentration and 100 μL were added to the first row of the plate. For susceptibility testing of N. gonorrhoeae, media was prepared according to methods reported by Wade and […]. Euro. Microbiol. Soc. Microbiol. […] This liquid medium allowed dense growth of N. gonorrhoeae for use in broth dilution tests. Protein-free liquid media (100 μL) were added to each well and two-fold dilutions were performed. The antibiotic containing wells were inoculated with an equal volume of bacterial inoculum matching a 0.5 McFarland standard. […] The lowest concentration of antibiotic that prevents growth is the MIC.
(In broth dilution the organism is exposed to a series of concentrations in liquid medium.)

The test system of series [2] is clinical isolates of N. gonorrhoeae. Description: MIC by micro-broth dilution against N. gonorrhoeae clinical isolates. The settings on record: Neisseria gonorrhoeae. In kind it is cell-based, Neisseria gonorrhoeae. The method, then:
as §1

The nature of series [3]: MTT cytotoxicity assay of ceftriaxone-based GUMBOS. In kind it is cell-based. Particulars: human, HeLa cells, read-out: Acute cytotoxicity (IC50). On the procedure:
Cytotoxicity Assay of GUMBOS: Cytotoxicity of GUMBOS, unreacted mixtures, and antiseptics towards healthy cells were evaluated using the MTT assay, a colorimetric dye assay, according to manufacturer's instructions. […] Stock solutions of antimicrobial agents in cell medium (1% MeOH) were diluted to a known working concentration, doubly diluted, and transferred to seeded cells. […] Cells treated with only DMEM were used as a negative control. After incubation, 15 μL of MTT were added to each well and cells were further incubated for an hour. Sodium dodecyl sulfate dimethylformamide solution was added after this additional incubation time in order to dissolve the purple formazan crystals. Cell viability was quantified at 570 nm using a microplate spectrophotometer (Eppendorf PlateReader AF2200, Hauppauge, NY). Cell viability as a percentage was determined as the ratio between treated cells and untreated (control) cells taken as 100%.
(In general: Formazan colour is commonly taken as a measure of viable cells.)

Series [4] relates to N. gonorrhoeae ATCC 49226. Description: Kirby-Bauer disc diffusion against N. gonorrhoeae ATCC 49226. The settings on record: for Zone size, mm (±SD): ATCC 49226, disc diffusion, 20-24 h. In kind it is cell-based, Neisseria gonorrhoeae. The method, then:
(§2) Antimicrobial susceptibility testing: Kirby-Bauer disc diffusion susceptibility tests were used to determine zones of inhibition (ZOIs) for N. gonorrhoeae (ATCC 49226) and three clinical isolates obtained from Louisiana State University Health Sciences Center New Orleans HIV Outpatient Clinic. Kirby-Bauer disc diffusion is one of the CDC's preferred methods of testing the susceptibility of N. gonorrhoeae. Testing was performed according to CLSI recommended procedures. In this susceptibility test, 6 mm diameter blank paper discs were impregnated with known quantities of antimicrobial drug followed by evaporation of solvent; however, ceftriaxone, azithromycin and doxycycline antimicrobial susceptibility discs were purchased from Thermo Fisher Scientific. Impregnated discs were placed onto prepared nutrient agar plates that were inoculated with N. gonorrhoeae to give a confluent lawn of growth. Suspensions of these various strains were prepared in accordance with a 1.0 McFarland standard. Inoculated agar plates were incubated for 20-24 h at 37° C. in a 5% CO2 atmosphere.
(§3) Blank discs were loaded with 50 nmol of GUMBOS, respective constituent compounds and equivalent stoichiometric unreacted mixtures of octenidine and carbenicillin that are equimolar to the purchased ceftriaxone discs (Oxoid™, Thermo Fisher). After 20-24 h incubation, diameters of ZOIs were measured using a ruler. […] Antibacterial activity was improved for octenidine when chloride ions were exchanged for the antibiotic. […] This effect was not seen, however, for an unreacted mixture of the two drugs for either N. gonorrhoeae (ATCC 49226) or clinical isolates. The ZOIs of octenidine/carbenicillin were also larger than or equal to azithromycin and doxycycline ZOIs for N. gonorrhoeae (ATCC 49226). […] This is significant as resistance rates for azithromycin have increased worldwide. Among 57 countries reporting on azithromycin susceptibility, 28 (49%) reported>5% resistance. […] Ceftriaxone produced large ZOIs as the clinical population still remains susceptible to it in the USA (only 0.2% of isolates had elevated resistance to ceftriaxone in 2017).

The test system of series [5] is N. gonorrhoeae clinical isolates. Description: Kirby-Bauer disc diffusion against N. gonorrhoeae clinical isolates. Type of series: cell-based, Neisseria gonorrhoeae. Particulars: three clinical isolates, 20-24 h. On the procedure:
as §2, §3

Series [6] can be described thus: MTT cytotoxicity assay of octenidine/carbenicillin GUMBOS. Type of series: cell-based. The settings on record: human. On the procedure: (§4) Cytotoxicity assay: To determine cell viability, a colorimetric MTT dye assay (Promega Corp., Madison, WI, USA) was used, employing the manufacturer's instructions, as an indicator of cytotoxicity of GUMBOS towards healthy (HeLa) cells. Hela cells (ATCC CCL-2) grown in DMEM-reduced serum supplemented with 10% FBS were plated at a density of 1% 10^5 cells/mL (10^4 cells/well) in 96-well plates. Concentrations of therapeutic agents up to 500 μM (1% MeOH or DMSO) were doubly diluted in cell culture media and transferred to seeded cells. Cells were incubated for 15 min and 60 min at 37° C. in a 5% CO2 atmosphere. Cells treated with medium alone served as a negative control. At the end of the incubation period, 15 μL of MTT was added to each well and incubation continued for another hour. Absorbance was measured at 570 nm in a microplate spectrophotometer. All experiments were performed in quadruplicate. Cell viability as a percentage was determined as the ratio between treated cells and untreated (control) cells (taken as 100%).

For another series, the system named is HeLa cells. The description is as above. In kind it is cell-based. Particulars: HeLa; for Relative toxicity to cervical cells (in words): after 15 min of incubation. The method, then: as §4
Series [7] in a line: Parallel Artificial Membrane Permeability Assay (PAMPA). Type of series: in vitro ADME. On the procedure:
Predictive intestinal permeability: PAMPA was employed as an in vitro model of passive, transcellular permeation. In this technique, a 96-well microtiter plate is used as a donor plate and a membrane/acceptor compartment coated with structured tri-layers of phospholipids is placed on top; this configuration is referred to as ‘sandwiched’. Known concentrations of octenidine/carbenicillin (100 μM in 1×PBS, 0.25% DMSO) were added to the donor plate while only buffer was placed in the acceptor plate. The assay was incubated for 5 h at room temperature and the acceptor plate was measured using a UV/Vis spectroscopy plate reader (Eppendorf PlateReader AF2200). Permeability coefficients (Pe) were calculated based on initial concentration in donor well (C0), concentration in donor well at 5 h (CD), concentration in acceptor well at 5 h (CA), volumes of donor (VD) and acceptor wells (VA), well filter area (A, 0.3 cm^2) and incubation time (t, 18000 s), as calculated using the relationship in Equation 1.
(In general: The PAMPA barrier holds no transporters, so it reflects passive diffusion.)

The conditions of series [8]: according to Hansch et al (1995); cited from earlier work.

One may read the MIC as the smallest concentration in the dilution series that meets the test's criterion for growth inhibition. A high value points to a need for much substance. A word on the IC50: it is the concentration needed to halve the response being measured. One may read the Log P as a log measure of how a compound divides between an organic and an aqueous phase.

Turning to `CCCCCCCCN=c1ccn(CCCCCCCCCCn2ccc(=NCCCCCCCC)cc2)cc1` [Octenidine dihydrochloride, octenidine dihydrochloride], the MIC in series [1] was found to be 3.1 µM; in [2] it was 4.7 ± 1.8 µM. Further, the IC50 at 15 min in series [3] (15 min) turned out to be 55 ± 1.29 µM; in [6] it was 37.4 ± 2.8 µg/mL. Also, the IC50 at 60 min in [3] (60 min) was 25.9 ± 1.17 µM; in [6], 16.1 ± 0.7 µg/mL. The entries for the “Zone size, mm (±SD)” value in series [4] and in series [5] were 9 ± 1 mm and 9 ± 0.3 mm, respectively. Further, the “Relative toxicity to cervical cells (in words)” value in the series on HeLa cells was “most toxic”.
As for `CC1(C)S[C@@H]2[C@H](NC(=O)C(C(=O)[O-])c3ccccc3)C(=O)N2[C@H]1C(=O)[O-].CCCCCCCCNc1cc[n+](CCCCCCCCCC[n+]2ccc(NCCCCCCCC)cc2)cc1` [[OCT][CAR], octenidine/carbenicillin], the Permeability class result in [7] is listed as “high permeability (Pe values that are greater than 1.5% 10 cm/s are defined as high permeability)”. Besides, in [7] (100 μM in 1×PBS, 0.25% DMSO, 5 h, room temperature), the “Mean effective Pe (permeability coefficient)” value is given as 3.78×10^−6 (±0.85) cm/s. Besides, the “Zone size, mm (±SD)” value in series [4] worked out at 40 ± 0.6 mm. In addition, the “Combination effect on antibacterial activity” value in series [4] (N. gonorrhoeae (ATCC 49226) and clinical isolates, disc diffusion) is recorded as “additive effect”. In [4] (disc diffusion ZOIs), the “Antibacterial activity relative to azithromycin” value was “bioequivalent to azithromycin”. Besides, in series [5], the “Zone size, mm (±SD)” value came to 37 ± 4 mm. Moreover, in the series with HeLa cells, the “Cytotoxicity towards cervical cells (in words)” value was “non-toxic towards cervical cells” and the “Relative toxicity to cervical cells (in words)” value was “lower toxicity than the stoichiometric, unreacted mixture”.
For the molecule `[H]/N=C(\N/C(=N/[H])NCCCCCCNC(=N)NC(=N)Nc1ccc(Cl)cc1)Nc1ccc(Cl)cc1` [chlorhexidine], in [8], the “Log P” value is 0.08.
